Assay: gradient 5% acetonitrile 3 min, to 50% in 2 min, to 85% in 15 min, held 3 min, 100 µL/min
Conditions: column: Zorbax Extend-C18 2.1 x 50 mm; eluents: water / acetonitrile, 0.1% formic acid
Procedure, shortened: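 Each retention time is based on an adduct peak selected computationally and verified by manual inspection. Measurements used HPLC–quadrupole time-of-flight mass spectrometry in positive and negative ionization mode on mixtures of ~100 pure standards. Chromatography ran on a Zorbax Extend-C18 column (2.1 × 50 mm, 1.8 μm) at 100 μL/min with water and acetonitrile, each containing 0.1% formic acid, and dead and dwell volumes of 40 μL and 900 μL.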

Row | SMILES | RP-LC retention time [s]
1 | Cc1oc(-c2[nH]ncc2C(=O)N(C)C)cc1S(=O)(=O)NCCC(C)C | 692
2 | CCNc1cc(N2CCC(CCC(=O)NCc3ccccc3)CC2)ncn1 | 647
3 | CCc1ccc(C2=C(C)C(N3CCCN(C(=O)C4CC4)CC3)=NS2(=O)=O)cc1 | 843
4 | O=C(NCCC1=CCCCC1)C(=O)NCC1CCN(S(=O)(=O)C2CC2)CC1 | 826
5 | Cc1ccc(-c2cc3c4nnc(SCC(=O)NCCc5ccccc5)n4ccn3n2)cc1C | 954
6 | CCCn1cc(S(=O)(=O)Nc2ccccc2Cl)c2cccnc21 | 914
7 | CCN1C(=O)Cc2cc(C(=O)NCc3ccc(Br)cc3)ccc21 | 807
8 | Cc1ccc(Cn2nc3c(S(=O)(=O)N4CCCCCC4)cccn3c2=O)cc1 | 1000
9 | O=C(Nc1ccc2c(c1)OCO2)C1CCN(c2cc(N3CCCCC3)ncn2)CC1 | 677
10 | COc1ccc(-c2nc(-c3ccc(S(=O)(=O)N4CCCCC4)cc3)no2)cc1 | 1280
11 | Cc1cc(Nc2ccc(NC(=O)Cn3cnc4ccccc43)cc2)nc(N2CCCC2)n1 | 548
12 | CCCNS(=O)(=O)c1cccc(-c2nnc(-c3ccc(C)cc3)o2)c1 | 971
13 | COc1cccc(CCC(=O)Nc2cnn(-c3ncc(N4CCCCC4)cn3)c2)c1 | 890
14 | O=C(NCCc1c[nH]c2ccccc12)c1nc[nH]c1C(=O)NCc1ccccn1 | 641
15 | O=C(Cn1nc2nc(Nc3ccc(F)cc3)ccn2c1=O)N1CCOCC1 | 631
16 | CCOc1ccc(C(=O)NC2CCN(c3cc(-c4ccccc4)[nH]n3)C2)cc1 (configuration not stated) | 741
17 | Cc1ccccc1Nc1c(-c2ccc(O)cc2)nc2ccc(Cl)cn12 | 710
18 | O=C(CN1CCc2ccccc2C1C(=O)N1CCCC1)Nc1cccc(Br)c1 (configuration not stated) | 921
19 | Cc1nn(C)c(C)c1S(=O)(=O)N1CCN(C(=O)CCc2c[nH]c3ccccc23)CC1 | 708

Row | SMILES | RP-LC retention time [s]
20 | Cc1cc(N2CCCCC2)nc(N2CCN(C(=O)c3ccc(C(C)(C)C)cc3)CC2)n1 | 855
21 | O=C(CCn1nnc2cc(-c3noc(C4CCCCC4)n3)ccc21)N1CCOCC1 | 891
22 | Cc1cc(-c2ccc(S(=O)(=O)N3CCC(C(=O)NCc4cccs4)CC3)o2)n[nH]1 | 735
23 | Cc1ccc(Cn2nc3c(S(=O)(=O)N4CCOCC4)cccn3c2=O)cc1 | 774
24 | Cc1c(C(=O)O)nnn1-c1ccc(F)c(Cl)c1 | 726
25 | Cc1ccc(NC(=O)CSc2nnc3c4cc(-c5ccc(F)cc5)nn4ccn23)c(C)c1 | 931
26 | CC(C)c1ccc(-c2cc3c4nn(CC(=O)NCc5ccco5)c(=O)n4ccn3n2)cc1 | 946
27 | CC(C)c1cc(C2CCCN2C(=O)c2cccs2)no1 (configuration not stated) | 862
28 | O=C(c1csc(S(=O)(=O)N2CCC(C(=O)N3CCCC3)CC2)c1)N1CCCC1 | 661
29 | Cc1cc(-n2nnc(C(=O)O)c2-c2ccncc2)ccc1F | 654
30 | Cc1ccsc1C(=O)N1CCC(c2nc(CCOCC3CC3)no2)C1 (configuration not stated) | 812
31 | CC(C)c1ccc(NC(=O)C(=O)NCCCN2CCN(c3ccccc3)CC2)cc1 | 631
32 | CCOCCCNCc1ccc(-c2ccc(Br)cc2)o1 | 705
33 | CC(C)Cn1cc(S(=O)(=O)Nc2cc(F)ccc2F)c2cccnc21 | 994
34 | Cc1cc(=O)n(CC(=O)Nc2ccc(Br)cc2F)c(N2CCC(C)CC2)n1 | 750
35 | COc1cccc(NC(=O)Cn2c(C(F)(F)F)nc3cc4c(cc32)OCCO4)c1 | 841
36 | COCCNC(=O)c1ccccc1-c1ocnc1C(=O)OC(C)C | 676
37 | COc1ccc(C2=NC3(CCN(C(=O)c4ccc(OC)cc4OC)CC3)NC2=O)cc1 | 776

Reference: the METLIN SMRT retention time set (Domingo-Almenara et al. 2019)
